Experimental data from patent US20220143222A1, “SUBCUTANEOUS AND INTRAMUSCULAR ADMINISTRATION OF PYRAZINE COMPOUNDS” (MediBeacon Inc., priority 2020, published 2022).
Read-outs that look alike come from different tables or passages of the source.

Test: MB-102 pig plasma concentration after subcutaneous dosing
Format: in vivo
Details: 3.2 mpk; for concentration at 15 min / concentration at 30 min / concentration at 45 min / concentration at 60 min / concentration at 75 min / concentration at 90 min / concentration at 105 min / concentration at 120 min / concentration at 135 min / concentration at 150 min / concentration at 165 min / concentration at 180 min / concentration at 195 min / concentration at 210 min / concentration at 225 min / concentration at 240 min / concentration at 255 min / concentration at 270 min / concentration at 285 min / concentration at 300 min / concentration at 315 min / concentration at 330 min / concentration at 345 min / concentration at 360 min: Yorkshire, pig, plasma, subcutaneous, 3.2 mg/kg, read-out: MB-102 Pig Plasma Conc.; for SUM (plasma conc. over time): 15-360 min
From the text: Juvenile Yorkshire pigs weighing approximately 25 kg were anesthetized, their body temperature stabilized, and an IV port surgically placed. A region approximately half-way along the line between the hip and knee joint was selected as the injection site and prepared by cleaning the skin and removing any exposed hair by shaving the selected area at least twice. Similarly, the site where two Quantum Leap fluorescent sensors (disclosed in U.S. Pat. No. 10,548,521) were to be positioned (chest) was prepared by washing and shaving. After the skin was dry the sensors were attached with commercially available skin adhesive and background skin auto-fluorescence measurements were recorded. After about 20 minutes of background fluorescence collection the subject animal was dosed either intravenously (animal 48019) or subcutaneously (animals 52771, 53701 09802, or 1539) or intramuscularly (09801) with PBS-1× formulated MB-102 at 3.2 mg/kg. Injection of the appropriate volume took place over about a minute. […] At this point glomerular elimination of MB-102 by the kidneys led to a decrease of fluorescence signal over time. Blood samples (1.5 mL) were taken immediately prior to the introduction of MB-102 (0 minutes) and at 15 minute intervals throughout the procedure. Blood was collected in BD vacutainer K2EDTA tubes, spun to plasma and stored at −80° C. until analyzed. Subsequently, the processed plasma samples were thawed, diluted with PBS-1× and analyzed by HPLC or UPLC and the concentration of MB-102 determined using standard analytical techniques. Further details for each animal are provided in the examples that follow.
A sterile Mesoderm needle pack was obtained. The needle array featured five (5), 4 mm×30 gauge (0.30 mm dia) luer-hub needles arranged four (4) in a circular, symmetrical pattern (30 mm diameter) about a central needle and were attached via a distribution channel and a second luer-hub to a primary source syringe (3 mL in total deliverable volume). MB-102 API was formulated as 60 mg/mL of sodium salt in 1×PBS and placed in 5 mL serum cap vials. Immediately prior to dosing, the primary syringe was filled with a slight excess of the required amount of formulated MB-102 to achieve 3.2 mg/kg and the needle cap replaced until the subject animal and fluorescence monitor were ready for the experiment to begin and the injection initiated. Subject pig 52771 was dosed with 1.2 mL of MB-102 formulated in PBS-1× (3.2 mg/kg). […] Subject animal fluorescence was obtained during the entire course of the experiment (8 hrs) and blood samples were collected every 15 minutes, processed and stored at −80° C. Comparison of IV MB-102 plasma concentration versus time and subcutaneous MB-102 (both at 3.2 mg/kg dose) plasma concentration versus time are shown in FIG. 1.
Experimental animal Yorkshire pig, 53701, was subject to subcutaneous (subQ) administration of MB-102 as described in Example 8. […] Plasma sampling was conducted as described in Example 8 and the results (Table 1) are plotted in FIG. 1.
Experimental animal Yorkshire pig, 09802, was subject to subcutaneous (subQ) administration of MB-102 using a single needle in the same protocol as Example 8 but substituting a 2 mL syringe equipped with a single 4 mm×30 g needle. […] Plasma sampling was conducted as described in Example 8 and the results (Table 1) are plotted in FIG. 1.

Compound: Nc1nc(C(=O)N[C@H](CO)C(=O)O)c(N)nc1C(=O)N[C@H](CO)C(=O)O [MB-102, 3,6-diamino-2,5-bis{N-[(1R)-1-carboxy-2-hydroxyethyl]carbamoyl}pyrazine]
- concentration at 15 min (pig 09802, SubQ): 6670 ng/mL
- concentration at 30 min (pig 09802, SubQ): 7530 ng/mL
- concentration at 45 min (pig 09802, SubQ): 6850 ng/mL
- concentration at 60 min (pig 09802, SubQ): 6540 ng/mL
- concentration at 75 min (pig 09802, SubQ): 5490 ng/mL
- concentration at 90 min (pig 09802, SubQ): 5260 ng/mL
- concentration at 105 min (pig 09802, SubQ): 4810 ng/mL
- concentration at 120 min (pig 09802, SubQ): 4410 ng/mL
- concentration at 135 min (pig 09802, SubQ): 3900 ng/mL
- concentration at 150 min (pig 09802, SubQ): 3710 ng/mL
- concentration at 165 min (pig 09802, SubQ): 3500 ng/mL
- concentration at 180 min (pig 09802, SubQ): 3070 ng/mL
- concentration at 195 min (pig 09802, SubQ): 2720 ng/mL
- concentration at 210 min (pig 09802, SubQ): 2500 ng/mL
- concentration at 225 min (pig 09802, SubQ): 2200 ng/mL
- concentration at 240 min (pig 09802, SubQ): 1990 ng/mL
- concentration at 255 min (pig 09802, SubQ): 1730 ng/mL
- concentration at 270 min (pig 09802, SubQ): 1600 ng/mL
- concentration at 285 min (pig 09802, SubQ): 1430 ng/mL
- concentration at 300 min (pig 09802, SubQ): 1300 ng/mL
- concentration at 315 min (pig 09802, SubQ): 1180 ng/mL
- concentration at 330 min (pig 09802, SubQ): 1030 ng/mL
- concentration at 345 min (pig 09802, SubQ): 914 ng/mL
- concentration at 360 min (pig 09802, SubQ): 829 ng/mL
- concentration at 15 min (pig 52771, SubQ): 6130 ng/mL
- concentration at 30 min (pig 52771, SubQ): 8510 ng/mL
- concentration at 45 min (pig 52771, SubQ): 8790 ng/mL
- concentration at 60 min (pig 52771, SubQ): 8840 ng/mL
- concentration at 75 min (pig 52771, SubQ): 7840 ng/mL
- concentration at 90 min (pig 52771, SubQ): 6920 ng/mL
- concentration at 105 min (pig 52771, SubQ): 6070 ng/mL
- concentration at 120 min (pig 52771, SubQ): 5560 ng/mL
- concentration at 135 min (pig 52771, SubQ): 5000 ng/mL
- concentration at 150 min (pig 52771, SubQ): 4400 ng/mL
- concentration at 165 min (pig 52771, SubQ): 3950 ng/mL
- concentration at 180 min (pig 52771, SubQ): 3480 ng/mL
- concentration at 195 min (pig 52771, SubQ): 3190 ng/mL
- concentration at 210 min (pig 52771, SubQ): 2830 ng/mL
- concentration at 225 min (pig 52771, SubQ): 2500 ng/mL
- concentration at 240 min (pig 52771, SubQ): 2240 ng/mL
- concentration at 255 min (pig 52771, SubQ): 2000 ng/mL
- concentration at 270 min (pig 52771, SubQ): 1760 ng/mL
- concentration at 285 min (pig 52771, SubQ): 1630 ng/mL
- concentration at 330 min (pig 52771, SubQ): 1210 ng/mL
- concentration at 345 min (pig 52771, SubQ): 1140 ng/mL
- concentration at 360 min (pig 52771, SubQ): 1000 ng/mL
- concentration at 15 min (pig 53701, SubQ): 8110 ng/mL
- concentration at 30 min (pig 53701, SubQ): 7410 ng/mL
- concentration at 45 min (pig 53701, SubQ): 6620 ng/mL
- concentration at 60 min (pig 53701, SubQ): 5940 ng/mL
- concentration at 75 min (pig 53701, SubQ): 5260 ng/mL
- concentration at 90 min (pig 53701, SubQ): 4720 ng/mL
- concentration at 105 min (pig 53701, SubQ): 4230 ng/mL
- concentration at 120 min (pig 53701, SubQ): 3670 ng/mL
- concentration at 135 min (pig 53701, SubQ): 3250 ng/mL
- concentration at 150 min (pig 53701, SubQ): 3000 ng/mL
- concentration at 165 min (pig 53701, SubQ): 2640 ng/mL
- concentration at 180 min (pig 53701, SubQ): 2390 ng/mL
- concentration at 195 min (pig 53701, SubQ): 2170 ng/mL
- concentration at 210 min (pig 53701, SubQ): 1940 ng/mL
- concentration at 225 min (pig 53701, SubQ): 1670 ng/mL
- concentration at 240 min (pig 53701, SubQ): 1510 ng/mL
- concentration at 255 min (pig 53701, SubQ): 1350 ng/mL
- concentration at 270 min (pig 53701, SubQ): 1220 ng/mL
- concentration at 285 min (pig 53701, SubQ): 1090 ng/mL
- concentration at 300 min (pig 53701, SubQ): 987 ng/mL
- concentration at 315 min (pig 53701, SubQ): 867 ng/mL
- concentration at 330 min (pig 53701, SubQ): 800 ng/mL
- concentration at 345 min (pig 53701, SubQ): 704 ng/mL
- concentration at 360 min (pig 53701, SubQ): 631 ng/mL
- SUM (plasma conc. over time) (pig 09802, SubQ): 1,210,924 ng/mL*min
- SUM (plasma conc. over time) (pig 52771, SubQ): 1,413,823 ng/mL*min
- SUM (plasma conc. over time) (pig 53701, SubQ): 1,077,956 ng/mL*min
